Laboratory results: patent publication US20240336574A1 (LATIGO BIOTHERAPEUTICS, INC., priority 2021, published 2024)
Where two headings read alike, the source gives them in different places.

Target: T1, recombinant human NaV1.8 stably transfected HEK cells (Homo sapiens, UniProt Q9Y5Y9)
T1 construct: expressed in transfected cells; host or cells: HEK cells, stably transfected
Assay: Compound profiling on NaV1.8, human NaV1.8 cell line, SyncroPatch384PE automated patch clamp assay (Example 102, first set of compounds, Table 16)
Type: cell-based
Conditions: human NaV1.8 HEK cells, Table 16 (first set of compounds)
Protocol: Compound Profiling on NaV1.8—Human NaV1.8 Cell Line—SyncroPatch384PE Assay
Compounds were tested on recombinant human NaV1.8 stably transfected HEK cells using the SyncroPatch384PE system, an automated patch clamp device. Cells were cultured at 37° C./5% CO2 in DMEM medium supplemented with GlutaMAX I, NEAA 1%, FBS 10% and seeded in T175 flasks. Cells were cultured at 30° C. one day prior to recording sodium currents. On the day of the recordings, cells were detached with 0.05% Trypsin-EDTA, resuspended in serum free DMEM medium and placed into the SyncroPatch384PE 6° C. pre-cooled cell hotel and shaken at 200 rpm. Intracellular solution (IC) contained, in mM: 10, CsCl; 110, CsF; 20, EGTA; 10, HEPES. Extracellular solution (EC) contained, in mM: 140, NaCl; 4, KCl; 5, Glucose; 10, HEPES; 2, CaCl2; 1, MgCl2. Washing solution contained, in mM: 40, NMDG; 100, NaCl; 4, KCl; 10, Glucose; 10, HEPES; 5, CaCl2; 1, MgCl2.
Compounds were tested in triplicate in 0.1% DMSO and 0.030% Pluronic Acid. Compounds were diluted 1:3 in EC solution to create a 10-point concentration response curve, spanning a final concentration range from 20-0.001 μM in the assay plate. Each plate contained tetracaine and another tool compound as positive controls. Up to 8 compounds were tested on one plate. 250 μM tetracaine and 0.1% DMSO were used as high and low controls, respectively. Whole cell patch clamp recordings were conducted according to Nanion's standard procedure for SyncroPatch384PE®. Cells were held at a holding potential of −120 mV. A depolarization step to 10 mV for 30 ms was applied (P1 measurement), followed by a hyperpolarization step to −100 mV for 100 ms. An inactivation step at −40 mV for 10 sec was applied before stepping to −100 mV for 20 ms, followed by a step to 10 mV for 30 ms (P2 measurement) and then back to −100 mV for 30 ms. Sweep interval was 15 sec with a sampling rate of 10 kHz. Following establishment of the whole-cell configuration in EC, two washing steps with reference buffer were performed to stabilize the baseline. Compounds were then applied by the SynchroPatch into each well and the current was recorded for five minutes in EC, followed by application of tetracaine to achieve full block at the end of the experiment. The potency of the compounds was assessed on two read-outs, resting state block (P1 measurement) or inactivated state block (P2 measurement) to obtain IC50 values. Values were normalized to high (tetracaine) and low (DMSO) controls. The IC50 values are listed in Table 16 as follows: “A” represents an IC50 less than or equal to 20 nM, “B” represents an IC50 greater than 20 nM to less than or equal to 40 nM, “C” represents an IC50 greater than 40 nM to less than or equal to 200 nM, “D” represents an IC50 greater than 200 nM to less than or equal to 500 nM.

[1] = inactivated state block (P2 measurement), read-out: P2IC50
[2] = resting state block (P1 measurement), read-out: P1IC50

T1 sequence (Q9Y5Y9 whole entry): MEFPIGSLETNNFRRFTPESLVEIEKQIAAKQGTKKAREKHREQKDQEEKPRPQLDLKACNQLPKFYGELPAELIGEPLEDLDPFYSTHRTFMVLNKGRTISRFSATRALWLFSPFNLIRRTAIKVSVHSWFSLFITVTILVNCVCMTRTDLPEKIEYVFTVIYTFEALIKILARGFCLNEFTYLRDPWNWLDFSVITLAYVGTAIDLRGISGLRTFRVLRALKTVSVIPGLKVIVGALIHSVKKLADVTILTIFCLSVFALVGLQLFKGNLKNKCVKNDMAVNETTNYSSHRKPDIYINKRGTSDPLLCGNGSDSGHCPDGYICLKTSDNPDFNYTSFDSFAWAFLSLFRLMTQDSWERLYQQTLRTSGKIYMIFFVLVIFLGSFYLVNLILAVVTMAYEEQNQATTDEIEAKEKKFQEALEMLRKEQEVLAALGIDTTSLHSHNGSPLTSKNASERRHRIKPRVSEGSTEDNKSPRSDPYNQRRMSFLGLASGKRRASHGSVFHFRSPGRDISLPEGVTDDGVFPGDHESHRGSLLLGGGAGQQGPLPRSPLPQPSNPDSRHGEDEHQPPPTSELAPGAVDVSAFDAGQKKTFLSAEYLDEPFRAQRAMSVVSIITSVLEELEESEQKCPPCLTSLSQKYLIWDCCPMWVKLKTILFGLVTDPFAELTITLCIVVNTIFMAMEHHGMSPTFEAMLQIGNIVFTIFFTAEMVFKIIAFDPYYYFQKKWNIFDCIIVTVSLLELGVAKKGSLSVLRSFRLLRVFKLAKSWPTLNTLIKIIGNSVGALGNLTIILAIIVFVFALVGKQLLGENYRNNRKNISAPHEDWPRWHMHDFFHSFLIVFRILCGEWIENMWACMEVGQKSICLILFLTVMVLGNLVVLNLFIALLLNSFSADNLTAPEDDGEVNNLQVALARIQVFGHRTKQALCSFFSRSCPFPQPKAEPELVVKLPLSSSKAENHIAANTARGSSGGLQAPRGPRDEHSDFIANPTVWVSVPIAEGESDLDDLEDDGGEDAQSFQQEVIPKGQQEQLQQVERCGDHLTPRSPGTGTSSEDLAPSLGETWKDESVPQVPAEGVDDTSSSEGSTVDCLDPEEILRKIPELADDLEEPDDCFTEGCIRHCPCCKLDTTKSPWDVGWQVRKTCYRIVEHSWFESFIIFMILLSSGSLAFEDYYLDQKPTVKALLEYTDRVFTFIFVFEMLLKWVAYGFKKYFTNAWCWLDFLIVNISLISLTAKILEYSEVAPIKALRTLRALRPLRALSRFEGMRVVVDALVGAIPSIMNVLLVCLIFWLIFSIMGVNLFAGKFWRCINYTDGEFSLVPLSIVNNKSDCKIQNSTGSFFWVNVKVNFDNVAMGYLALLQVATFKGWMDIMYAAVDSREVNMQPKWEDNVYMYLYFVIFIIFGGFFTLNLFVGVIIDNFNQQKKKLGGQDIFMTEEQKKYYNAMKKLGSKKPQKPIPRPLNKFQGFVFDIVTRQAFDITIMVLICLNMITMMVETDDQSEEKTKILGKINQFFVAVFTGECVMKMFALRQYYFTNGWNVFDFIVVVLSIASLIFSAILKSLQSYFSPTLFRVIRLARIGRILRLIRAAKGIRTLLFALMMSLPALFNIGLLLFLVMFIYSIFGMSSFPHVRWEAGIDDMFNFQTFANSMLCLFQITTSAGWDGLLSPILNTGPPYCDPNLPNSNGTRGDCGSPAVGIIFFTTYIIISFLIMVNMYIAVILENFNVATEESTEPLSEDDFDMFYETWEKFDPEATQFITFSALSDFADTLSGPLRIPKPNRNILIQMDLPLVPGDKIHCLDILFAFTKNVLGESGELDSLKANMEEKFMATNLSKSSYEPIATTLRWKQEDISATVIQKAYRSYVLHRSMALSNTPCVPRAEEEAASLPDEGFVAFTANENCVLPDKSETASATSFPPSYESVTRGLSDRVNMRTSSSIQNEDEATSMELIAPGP

Compound	IC50 [1] [µM]	IC50 [2] [µM]
Cc1cc(F)ccc1COc1ncc(C(F)(F)F)cc1C(=O)Nc1cccc(S(C)(=O)=O)c1 [Compound 1596]	0.2 to 0.5	0.2 to 0.5
COc1c(Oc2nnc3c(c2C(=O)Nc2cccc(C(N)=O)c2)CCC3)ccc(F)c1F [Compound 1417]	0.2 to 0.5	0.2 to 0.5
Cc1cc(C#N)ncc1Oc1ncc(C(F)(F)F)cc1C(=O)Nc1cccc(S(C)(=O)=O)c1 [Compound 1694]	0.2 to 0.5	0.2 to 0.5
Cc1c(C(F)(F)F)nnc(Oc2ccc(Cl)cc2)c1C(=O)Nc1cccc(S(C)(=N)=O)c1 (stereo not shown) [Compound 22]	0.04 to 0.2	0.02 to 0.04
CS(=O)(=O)c1cccc(NC(=O)c2cc(C(F)(F)F)cnc2Oc2ccc(F)c3cnccc23)c1 [Compound 1583]	0.02 to 0.04	0.02 to 0.04
COc1ncc(C(N)=O)cc1Oc1ncc(C(F)(F)F)cc1C(=O)Nc1cccc(S(C)(=N)=O)c1 (stereo not shown) [Compound 1622]	0.2 to 0.5	0.2 to 0.5
Cc1cc(F)ccc1Oc1nnc(C(F)(F)F)c(C)c1C(=O)Nc1cccc(C(N)=O)c1 [Compound 1406]	0.04 to 0.2	0.04 to 0.2
COc1cc(C#N)ccc1Oc1nnc(C(F)(F)F)c(C)c1C(=O)Nc1cccc(C(=O)NCC2(F)CC2)c1 [Compound 1440, 3-(4-cyano-2-methoxy-phenoxy)-N-[3-[(1-fluorocyclopropyl)methylcarbamoyl]phenyl]-5-methyl-6-(trifluoromethyl)pyridazine-4-carboxamide]	0.2 to 0.5	0.2 to 0.5
COc1cc(F)c(Oc2ncc(C(F)(F)F)cc2C(=O)Nc2cccc(C(N)=O)c2)cc1F [Compound 1638]	0.2 to 0.5	0.2 to 0.5
COc1cc(C#N)ccc1Oc1nnc(-c2ccc(C#N)cc2)c(C)c1C(=O)Nc1cccc([S@@](C)(=N)=O)c1 [Compound 1532, 3-(4-cyano-2-methoxyphenoxy)-6-(4-cyanophenyl)-N-{3-[(S)-imino(methyl)oxo-λ^6-sulfanyl]phenyl}-5-methylpyridazine-4-carboxamide]	0.04 to 0.2	0.04 to 0.2
COc1cc(C#N)ccc1Oc1nnc(-c2cnc(C)s2)c(C)c1C(=O)Nc1cccc(S(C)(=N)=O)c1 (stereo not shown) [Compound 1449, 3-(4-cyano-2-methoxy-phenoxy)-5-methyl-N-[3-(methylsulfonimidoyl)phenyl]-6-(2-methylthiazol-5-yl)pyridazine-4-carboxamide]	0.2 to 0.5	0.2 to 0.5
COc1cc(C#N)ccc1Oc1nnc(C(F)(F)F)c(C)c1C(=O)Nc1cccc(C(=O)N2CC(O)C2)c1 [Compound 1437, 3-(4-cyano-2-methoxy-phenoxy)-N-[3-(3-hydroxyazetidine-1-carbonyl)phenyl]-5-methyl-6-(trifluoromethyl)pyridazine-4-carboxamide]	0.04 to 0.2	0.04 to 0.2
CS(=N)(=O)c1cccc(NC(=O)c2cc(C(F)(F)F)cnc2Oc2ccc(OC(F)F)nc2)c1 (stereo not shown) [Compound 1646]	0.04 to 0.2	0.04 to 0.2
COc1cc(C#N)ccc1Oc1ncc(C2=CCOCC2)cc1C(=O)Nc1cccc(S(C)(=N)=O)c1 (stereo not shown) [Compound 1726, 2-(4-cyano-2-methoxy-phenoxy)-5-(3,6-dihydro-2H-pyran-4-yl)-N-[3-(methylsulfonimidoyl)phenyl]pyridine-3-carboxamide]	0.2 to 0.5	0.2 to 0.5
Cc1cccc(Cl)c1Oc1nnc(C(F)(F)F)c(C)c1C(=O)Nc1ccc(C(N)=O)cc1 [Compound 1401]	0.2 to 0.5	0.2 to 0.5
CS(=O)(=O)c1cccc(NC(=O)c2cc(C(F)(F)F)cnc2OCC2CCC2(F)F)c1 (stereo not shown) [Compound 1605]	0.2 to 0.5	0.2 to 0.5
NC(=O)c1cccc(NC(=O)c2cc(C(F)(F)F)cnc2OC2CC3C(C2)C3(F)F)c1 (stereo not shown) [Compound 1677]	0.2 to 0.5	0.2 to 0.5
Cc1cc(F)ccc1Oc1nnc(C(F)(F)F)c(N2CCOCC2)c1C(=O)Nc1cccc([S@@](C)(=N)=O)c1 [Compound 1524, (S)-3-(4-fluoro-2-methylphenoxy)-N-(3-(S-methylsulfonimidoyl)phenyl)-5-morpholino-6-(trifluoromethyl)pyridazine-4-carboxamide]	0.2 to 0.5	0.2 to 0.5
COc1ncc(C#N)cc1Oc1ncc(C(F)(F)F)cc1C(=O)Nc1cccc(S(C)(=N)=O)c1 (stereo not shown) [Compound 1623]	0.2 to 0.5	0.2 to 0.5
Cc1cc(F)ccc1Oc1nncc(C)c1C(=O)Nc1cccc(S(C)(=N)=O)c1 (stereo not shown) [Compound 1553, 3-(4-fluoro-2-methyl-phenoxy)-5-methyl-N-[3-(methylsulfonimidoyl)phenyl]pyridazine-4-carboxamide]	0.2 to 0.5	0.2 to 0.5
COc1c(Oc2nccc(C(F)(F)F)c2C(=O)Nc2cccc(S(C)(=N)=O)c2)ccc(F)c1F (stereo not shown) [Compound 1651]	≤ 0.02	≤ 0.02
CS(=O)(=O)c1cccc(NC(=O)c2cc(C(F)(F)F)cnc2Oc2ccc(C#N)nc2)c1 [Compound 1703]	0.2 to 0.5	0.2 to 0.5

The next lines start with the values.

IC50 [1] [µM]	IC50 [2] [µM]	Compound
≤ 0.02	≤ 0.02	COc1cc(F)c(F)cc1Oc1ncc(C(F)(F)F)cc1C(=O)Nc1cccc(S(C)(=O)=O)c1 [Compound 1615]
≤ 0.02	≤ 0.02	COc1nc(C)ccc1Oc1ncc(C(F)(F)F)cc1C(=O)Nc1cccc(S(C)(=O)=O)c1 [Compound 1608]
≤ 0.02	≤ 0.02	Cc1c(Oc2ncc(C(F)(F)F)cc2C(=O)Nc2cccc(S(C)(=N)=O)c2)ccc(OC(F)(F)F)c1F (single isomer, unassigned) [Compound 1714]
≤ 0.02	≤ 0.02	COc1cc(C#N)ccc1Oc1nnc(C(F)(F)F)c(C)c1C(=O)Nc1cccc([S@@](C)(=N)=O)c1 (single isomer, unassigned) [Compound 1479]
≤ 0.02	≤ 0.02	CC(C)Oc1ccc(Oc2ncc(C(F)(F)F)cc2C(=O)Nc2cccc(S(C)(=N)=O)c2)cc1F (stereo not shown) [Compound 1647]
≤ 0.02	≤ 0.02	COc1cc(C#N)ccc1Oc1nnc(C(F)(F)F)c(C)c1C(=O)Nc1ccc(C(N)=O)cc1 [Compound 1405]
≤ 0.02	≤ 0.02	COc1c(Oc2nnc(C(F)(F)F)c(C)c2C(=O)Nc2cccc(S(C)(=O)=O)c2)ccc(Cl)c1F [Compound 1552, 3-(4-chloro-3-fluoro-2-methoxy-phenoxy)-5-methyl-N-(3-methylsulfonylphenyl)-6-(trifluoromethyl)pyridazine-4-carboxamide]
≤ 0.02	≤ 0.02	Cc1c(Oc2ncc(C(F)(F)F)cc2C(=O)Nc2cccc(S(C)(=N)=O)c2)ccc(OC(F)(F)F)c1F (stereo not shown) [Compound 1712]
≤ 0.02	≤ 0.02	Cc1c(C(F)(F)F)nnc(Oc2ccc(OC(F)(F)F)cc2F)c1C(=O)Nc1cccc(S(C)(=N)=O)c1 (single isomer, unassigned) [Compound 1496, 3-[2-fluoro-4-(trifluoromethoxy)phenoxy]-N-{3-[imino(methyl)oxo-λ^6-sulfanyl]phenyl}-5-methyl-6-(trifluoromethyl)pyridazine-4-carboxamide]
≤ 0.02	≤ 0.02	COc1cc(C#N)ccc1Oc1nnc(C(F)(F)F)c(C)c1C(=O)Nc1cccc(S(C)(=O)=O)c1 [Compound 4]
–	≤ 0.02	Cc1c(C(F)(F)F)nnc(Oc2ccc(OC(F)F)c(F)c2F)c1C(=O)Nc1cccc(S(C)(=N)=O)c1 (single isomer, unassigned) [Compound 1512, 3-[4-(difluoromethoxy)-2,3-difluorophenoxy]-N-{3-[imino(methyl)oxo-λ^6-sulfanyl]phenyl}-5-methyl-6-(trifluoromethyl)pyridazine-4-carboxamide]
≤ 0.02	≤ 0.02	Cc1c(C(F)(F)F)nnc(Oc2ccc(Cl)cc2F)c1C(=O)Nc1cccc(S(C)(=N)=O)c1 (single isomer, unassigned) [Compound 1471, 3-(4-chloro-2-fluoro-phenoxy)-5-methyl-N-[3-(methylsulfonimidoyl)phenyl]-6-(trifluoromethyl)pyridazine-4-carboxamide]
